Patent publication US20020137929A1, “1 - (3-heterocyclylphenyl) isothiourea, -isourea, -guanidine and -amidine herbicidal agents” (Intellectual Property Department, BASF Aktiengesellschaft, priority 1998, published 2002)

Assays:
[1] = tested on: SETVI (Foxtail, Green); test: Preemergence herbicidal evaluation; type: in vivo, Setaria viridis; details: rated 4-5 weeks after treatment
Summary of the method: (§1)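 Seeds were mixed with potting soil and planted on about one inch of soil, then sprayed with test compound in aqueous acetone at about 0.0156 to 0.500 kg per hectare. Plants grew under standard greenhouse care and were visually rated 0-9 against untreated controls 4-5 weeks post-treatment.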

[2] = tested on: TRZAWR (Wheat, Winter, cv Riband); test: Preemergence herbicidal evaluation; type: in vivo, Triticum aestivum; details: rated 4-5 weeks after treatment
Summary of the method: as §1

[3] = tested on: SETVI (Foxtail, Green); test: Postemergence herbicidal evaluation; type: in vivo, Setaria viridis
Summary of the method: (§2)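 Visual 0-9 injury score (stand, vigor, malformation, size, chlorosis, appearance vs untreated) taken four to five weeks post-spray, averaged across repeat tests. Test plants about two weeks old; foliar spray of acetone/water (1:1) with 0.5% surfactant delivering ~0.0156-0.500 kg active/ha.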

[4] = tested on: ORYSAT (Rice, Tebonnet); test: Postemergence herbicidal evaluation; type: in vivo, Oryza sativa, (L.) Tebonnet
Summary of the method: as §2

[5] = tested on: ZEAMX (Corn, Field); test: Postemergence herbicidal evaluation; type: in vivo, Zea mays
Summary of the method: as §2

[6] = tested on: CYPIR (Rice Flatsedge); test: Preemergence weed control under flooded paddy conditions; type: in vivo, Cyperus iria; details: rated 3-4 weeks after treatment
Summary of the method: (§3)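 Seeds or propagules sown in silt loam kept flooded 1.5-3 cm; compounds in 50/50 acetone/water pipetted into flood water at about 0.0313 to 0.500 kg/ha. Greenhouse; visual 0-9 rating versus untreated control 3-4 weeks after treatment.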

[7] = tested on: ECHCG (Barnyardgrass); test: Preemergence herbicidal evaluation; type: in vivo, Echinochloa crus-galli; details: rated 4-5 weeks after treatment
Summary of the method: as §1

[8] = tested on: ZEAMX (Corn, Field); test: Preemergence herbicidal evaluation; type: in vivo, Zea mays; details: rated 4-5 weeks after treatment
Summary of the method: as §1

[9] = tested on: CYPSE (Flatsedge); test: Preemergence weed control under flooded paddy conditions; type: in vivo, Cyperus serotinus; details: rated 3-4 weeks after treatment
Summary of the method: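 Ratings on a 0-9 visual scale cover stand, vigor, malformation, size, chlorosis and overall appearance relative to a control, taken three to four weeks post-treatment. Application was into flood water over freshly sown silt loam at roughly 0.0313 to 0.500 kg/ha.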

[10] = tested on: ECHORC (Watergrass (Calif.)); test: as above; type: in vivo, Echinochloa oryzoides; details: rated 3-4 weeks after treatment
Summary of the method: as §3

[11] = postemergence, rate 0.0625 kg/ha

CCCN1C(=O)CSC1=Nc1cc(-n2c(=O)cc(C(F)(F)F)n(C)c2=O)c(F)cc1Cl [Compound 171, 3-{4-Chloro-2-fluoro-5-[(4-oxo-3-propyl-2-thiazolidinylidene)amino]phenyl}-1-methyl-6-(trifluoromethyl)-2,4 (1H, 3H)-pyrimidinedione]
8.0: Preemergence herbicidal rating TRZAWR ([2]; 0.2500 kg/ha) | Preemergence herbicidal rating ECHCG ([7]; 0.0625 kg/ha) | Preemergence herbicidal rating ZEAMX ([8]; 0.0625 kg/ha) | Preemergence herbicidal rating ZEAMX ([8]; 0.1250 kg/ha) | herbicidal effect rating, ECHORC ([10]; 0.0313 kg/ha)
9.0: Preemergence herbicidal rating SETVI ([1]; 0.0313 kg/ha) | Preemergence herbicidal rating SETVI ([1]; 0.0625 kg/ha) | Preemergence herbicidal rating SETVI ([1]; 0.1250 kg/ha) | Preemergence herbicidal rating SETVI ([1]; 0.2500 kg/ha) | herbicidal rating SETVI [3, 11] | herbicidal effect rating, CYPIR ([6]; 0.0625 kg/ha) | herbicidal effect rating, CYPIR ([6]; 0.1250 kg/ha) | herbicidal effect rating, CYPIR ([6]; 0.2500 kg/ha) | Preemergence herbicidal rating ECHCG ([7]; 0.1250 kg/ha) | Preemergence herbicidal rating ECHCG ([7]; 0.2500 kg/ha) | Preemergence herbicidal rating ZEAMX ([8]; 0.2500 kg/ha) | herbicidal effect rating, CYPSE ([9]; 0.0313 kg/ha) | herbicidal effect rating, CYPSE ([9]; 0.0625 kg/ha) | herbicidal effect rating, CYPSE ([9]; 0.1250 kg/ha) | herbicidal effect rating, CYPSE ([9]; 0.2500 kg/ha) | herbicidal effect rating, ECHORC ([10]; 0.0625 kg/ha) | herbicidal effect rating, ECHORC ([10]; 0.1250 kg/ha) | herbicidal effect rating, ECHORC ([10]; 0.2500 kg/ha)
4.0: Postemergence herbicidal rating ORYSAT ([4]; Rate 0.0313 kg/ha) | Preemergence herbicidal rating ECHCG ([7]; 0.0313 kg/ha)
6.5: Postemergence herbicidal rating ZEAMX ([5]; Rate 0.0313 kg/ha)
2.0: Preemergence herbicidal rating TRZAWR ([2]; 0.0156 kg/ha) | Preemergence herbicidal rating ZEAMX ([8]; 0.0156 kg/ha)
3.0: Preemergence herbicidal rating TRZAWR ([2]; 0.0313 kg/ha) | herbicidal effect rating, CYPIR ([6]; 0.0313 kg/ha)
6.0: Preemergence herbicidal rating TRZAWR ([2]; 0.0625 kg/ha) | Preemergence herbicidal rating TRZAWR ([2]; 0.1250 kg/ha) | Preemergence herbicidal rating ZEAMX ([8]; 0.0313 kg/ha)
3.5: Postemergence herbicidal rating ORYSAT ([4]; Rate 0.0156 kg/ha)
7.0: Preemergence herbicidal rating SETVI ([1]; 0.0156 kg/ha) | Postemergence herbicidal rating SETVI ([3]; Rate 0.0156 kg/ha) | Postemergence herbicidal rating SETVI ([3]; Rate 0.0313 kg/ha) | herbicidal rating ZEAMX [5, 11]
0.0: Preemergence herbicidal rating ECHCG ([7]; 0.0156 kg/ha)
5.0: herbicidal rating ORYSAT [4, 11] | Postemergence herbicidal rating ZEAMX ([5]; Rate 0.0156 kg/ha)
